Drawing on patent US9271960B2, “Tetrahydrocarbazoles as active agents for inhibiting VEGF production by translational control” (PTC Therapeutics, Inc., priority 2004, dated 2016), this text covers EC50 for 41 molecules.

The test has as its system VEGF. Kind of test: Hypoxia-inducible endogenous VEGF expression ELISA in HeLa cells. It counts as cell-based. Particulars: VEGF protein by ELISA. The procedure: The ability of compounds of the invention to modulate hypoxia-inducible endogenous VEGF expression is analyzed as follows. VEGF protein levels are monitored by an ELISA assay (R&D Systems). Briefly, HeLa cells are cultured for 24-48 hours under hypoxic conditions (1% O2, 5% CO2, balanced with nitrogen) in the presence or absence of a compound of the invention. The conditioned media is then assayed by ELISA, and the concentration of VEGF is calculated from the standard ELISA curve of each assay.
A dose-response analysis is performed using the ELISA assay and conditions described above. A series of different concentrations (e.g., seven) are analyzed. In parallel, a dose-response cytotoxicity assay is performed using Cell Titer Glo (Promega) under the same conditions as the ELISA to ensure that the inhibition of VEGF expression is not due to cytotoxicity. Dose-response curves are plotted using percentage inhibition versus concentration of the compound, and EC50 and CC50 values are generated for each compound with the maximal inhibition set as 100% and the minimal inhibition as 0%.
Compounds 156-188 in Table 1 are commercially available. In Table 1, each of the represented compounds is followed by one to five stars.

Setting [1] is: Homo sapiens, HeLa, compounds 1-155, hypoxic conditions (1% O2), read-out: ELISA Activity.
[2] abbreviates: Homo sapiens, HeLa, compounds 191-239, hypoxic conditions, read-out: ELISA Activity EC50.
The mark [3] stands for this setting: Homo sapiens, HeLa, purchased compounds 156-188, hypoxic conditions, read-out: ELISA Activity.
The mark [4] stands for this setting: Homo sapiens, HeLa, purchased compounds 156-188, hypoxic conditions, read-out: ELISA EC50.

Structures can show the parent of a compound that is named as a salt. Where two headings read alike, the source gives them in different places.

With `CC(C)(C)OC(=O)n1c2c(c3cc(Br)ccc31)CCCC2=O` [Compound 80, 6-Bromo-1-oxo-1,2,3,4-tetrahydro-carbazole-9-carboxylic acid tert-butyl ester], under setting [1], the EC50 was over 1000 nM. Turning to `COCCN(CCOC)CC(O)COc1ccc(C2CCCCc3c2[nH]c2ccc(Cl)cc32)cc1` (centres unmarked) [Compound 234], the EC50 under setting [2] is under 10 nM. Take `Fc1cccc(NC2CCCc3c2[nH]c2ccc(Br)cc32)c1` (centres unmarked) [Compound 12, (6-Bromo-2,3,4,9-tetrahydro-1H-carbazol-1-yl)-(3-fluoro-phenyl)-amine]: under setting [1], the EC50 is under 10 nM. As to `O=C(NC1CCCc2c1[nH]c1ccc(Br)cc21)Oc1ccccc1` (centres unmarked) [Compound 75, (6-Bromo-2,3,4,9-tetrahydro-1H-carbazol-1-yl)-carbamic acid phenyl ester], the EC50 (Homo sapiens, compounds 1-155, hypoxic conditions (1% O2), read-out: ELISA Activity) was over 1000 nM.

Consider `Cc1ccc2c(c1)c1c3n2CCNC3CCC1` (centres unmarked) [Compound 169, 8-Methyl-2,3,3a,4,5,6-hexahydro-1H-pyrazino[3,2,1-jk]carbazole hydrochloride], for which the EC50 under setting [3] was over 1000 nM and the EC50 under setting [4] was over 10000 nM. Turning to `FC(F)(F)c1ccc(NC2CCCc3c2[nH]c2ccc(C(F)(F)F)cc32)cc1` (centres unmarked) [Compound 140, (4-Trifluoromethyl-phenyl)-(6-trifluoromethyl-2,3,4,9-tetrahydro-1H-carbazol-1-yl)-amine], the EC50 under setting [1] was 10 to 40 nM. Same read-out and setting: under `Cc1ccc(C)n1C1CCCc2c1[nH]c1ccc(Br)cc21` (centres unmarked) [Compound 70, 6-Bromo-1-(2,5-dimethylpyrrol-1-yl)-2,3,4,9-tetrahydro-1H-carbazole] stands 200 to 1000 nM; under `NC1CCCc2c1[nH]c1ccc(Br)cc21` (centres unmarked) [Compound 89, 6-Bromo-2,3,4,9-tetrahydro-1H-carbazol-1-ylamine], over 1000 nM. With “3-(8-Cyclohexyl-1,2,3a,4,5,6- hexahydro-pyrazino[3,2,1- jk]carbazol-3-yl)-propionic acid [Compound 183]”, the EC50 is over 1000 nM (purchased compounds 156-188, hypoxic conditions, read-out: ELISA Activity) and over 10000 nM (purchased compounds 156-188, hypoxic conditions, read-out: ELISA EC50). In the case of `COC(CNC1CCCc2c1[nH]c1ccc(C)cc21)OC` (centres unmarked) [Compound 165, (2,2-Dimethoxy-ethyl)-(6-methyl-2,3,4,9-tetrahydro-1H-carbazol-1-yl)-amine], the EC50 under setting [3] was over 1000 nM and the EC50 under setting [4] was 5200 nM.

Consider `OC(COc1ccc(C2CCCCc3c2[nH]c2ccc(Br)cc32)cc1)Cn1cncn1` (centres unmarked) [Compound 226], for which the EC50 under setting [2] fell in the range of 40 to 200 nM.

On to `CC(=O)Nc1ccc(CN2CCCn3c4c(c5cc(C)ccc53)CCCC42)cc1` (centres unmarked) [Compound 181, N-[4-(11-Methyl-1,2,3,3a,6,7-hexahydro-5H-[1,4]diazepino[3,2,1-jk]carbazol-4-ylmethyl)-phenyl]-acetamide], for which the EC50 by setting is: under setting [3], over 1000 nM; under setting [4], over 10000 nM. For the molecule `Brc1ccc2[nH]c3c(c2c1)CCCC3NCc1ccc2c(c1)OCO2` (centres unmarked) [Compound 62, Benzo[1,3]dioxo-5-ylmethyl-(6-bromo-2,3,4,9-tetrahydro-1H-carbazol-1-yl)-amine], the EC50 under setting [1] fell in the range of 200 to 1000 nM. As for `CC(=O)SCCC(=O)N1CCn2c3c(c4cc(C)ccc42)CCCC31` (stereo not drawn) [Compound 182, Thioacetic acid S-[3-(8-methyl-1,2,3a,4,5,6-hexahydro-pyrazino[3,2,1-jk]carbazol-3-yl)-3-oxo-propyl] ester], the EC50 runs as follows: under setting [3], over 1000 nM; under setting [4], over 10000 nM.

Turning to `CC(C)COc1ccc2c(c1)c1c3n2CCNC3CCC1` (centres unmarked) [Compound 167, 8-Isobutoxy-2,3,3a,4,5,6-hexahydro-1H-pyrazino[3,2,1-jk]carbazole], the EC50 was over 1000 nM under setting [3] and 6930 nM under setting [4]. With `CN(C(=O)c1cccc(Cl)c1)C1CCCc2c1[nH]c1ccc(Br)cc21` (centres unmarked) [Compound 66, N-(6-Bromo-2,3,4,9-tetrahydro-1H-carbazol-1-yl)-3-chloro-N-methyl-benzamide], the EC50 under setting [1] lay in the range of 200 to 1000 nM. On to `O=C(NC1CCCc2c1[nH]c1ccc(Br)cc21)c1ccoc1` (centres unmarked) [Compound 152, Furan-3-carboxylic acid (6-bromo-2,3,4,9-tetrahydro-1H-carbazol-1-yl)-amide], for which the EC50 under setting [1] is 200 to 1000 nM. On to `O=C(NC1CCCc2c1[nH]c1ccc(Cl)cc21)c1ccco1` (centres unmarked) [Compound 144, Furan-2-carboxylic acid (6-chloro-2,3,4,9-tetrahydro-1H-carbazol-1-yl)-amide], for which the EC50 under setting [1] lay within 40 to 200 nM. Take `COc1ccc(NC(=S)N2CCn3c4c(c5cc(C)ccc53)CCCC42)cc1` (centres unmarked) [Compound 172, 8-Methyl-1,2,3a,4,5,6-hexahydro-pyrazino[3,2,1-jk]carbazole-3-carbothioic acid (4-methoxy-phenyl)-amide]: the EC50 runs as follows: under setting [3], over 1000 nM; under setting [4], over 10000 nM. For the molecule `O=C(NC1CCCc2c1[nH]c1ccc(Br)cc21)c1ccc(Oc2ccccc2)cc1` (centres unmarked) [Compound 35, N-(6-Bromo-2,3,4,9-tetrahydro-1H-carbazol-1-yl)-4-phenoxy-benzamide], the EC50 under setting [1] was in the range of 40 to 200 nM. On the same count and under the same terms, the result for `O=C(NC1CCCc2c1[nH]c1ccc(Br)cc21)c1ccco1` (centres unmarked) [Compound 123, Furan-2-carboxylic acid (6-bromo-2,3,4,9-tetrahydro-1H-carbazol-1-yl)-amide] reads 10 to 40 nM; that for `Clc1ccc2[nH]c3c(c2c1Cl)CCCC3n1cccc1` (centres unmarked) [Compound 48, 5,6-Dichloro-1-pyrrol-1-yl-2,3,4,9-tetrahydro-1H-carbazole], 40 to 200 nM; that for `Brc1ccc2[nH]c3c(c2c1)CCCC3Nc1ncccn1` (centres unmarked) [Compound 141, (6-Bromo-2,3,4,9-tetrahydro-1H-carbazol-1-yl)-pyrimidin-2-yl-amine], under 10 nM. On the same count and under the same terms, under `Brc1ccc2[nH]c3c(c2c1)CCCC3NCc1ccco1` (centres unmarked) [Compound 68, (6-Bromo-2,3,4,9-tetrahydro-1H-carbazol-1-yl)-furan-2-ylmethyl-amine] stands 200 to 1000 nM; under `CCCCNC1CCCc2c1[nH]c1ccc(Br)cc21` (centres unmarked) [Compound 72, (6-Bromo-2,3,4,9-tetrahydro-1H-carbazol-1-yl)-butyl-amine], 200 to 1000 nM; under `Brc1cccc2c3c([nH]c12)C(n1cccc1)CCC3` (centres unmarked) [Compound 118, 8-Bromo-1-pyrrol-1-yl-2,3,4,9-tetrahydro-1H-carbazole], over 1000 nM.

Regarding `S=C(Nc1ccccc1)N1CCn2c3c(c4cc(C5CCCCC5)ccc42)CCCC31` (centres unmarked) [Compound 164, 8-Cyclohexyl-1,2,3a,4,5,6-hexahydro-pyrazino[3,2,1-jk]carbazole-3-carbothioic acid phenylamide], the EC50 was over 1000 nM under setting [3] and 2170 nM under setting [4]. As to `Cn1c2c(c3cc(Br)ccc31)CCCC2=O` [Compound 88, 6-Bromo-9-methyl-2,3,4,9-tetrahydro-carbazol-1-one], under setting [1], the EC50 is over 1000 nM. As for `Brc1ccc2[nH]c3c(c2c1)CCCC3NC1CCC(c2ccccc2)CC1` (centres unmarked) [Compound 27, (6-Bromo-2,3,4,9-tetrahydro-1H-carbazol-1-yl)-(4-phenyl-cyclohexyl)-amine], the EC50 under setting [1] was 10 to 40 nM. As to `Clc1ccc2[nH]c3c(c2c1)CCCC3c1ccc(OCC2CO2)cc1` (centres unmarked) [Compound 224], under setting [2], the EC50 was under 10 nM.

For `Cc1ccc2c(c1)c1c3n2CCCNC3CCC1` (centres unmarked) [Compound 173, 11-Methyl-1,2,3,3a,4,5,6,7-octahydro-[1,4]diazepino[3,2,1-jk]carbazole], the EC50 runs as follows: under setting [3], over 1000 nM; under setting [4], over 10000 nM. `FC(F)(F)c1ccc(NC2CCCc3c2[nH]c2ccc(Cl)cc32)cc1` (centres unmarked) [Compound 137, (6-Chloro-2,3,4,9-tetrahydro-1H-carbazol-1-yl)-(4-trifluoromethyl-phenyl)-amine]: the EC50 under setting [1] is under 10 nM. For the molecule `Oc1ccc(C2CCCc3c2[nH]c2ccc(Br)cc32)cc1` (centres unmarked) [Compound 193], the EC50 under setting [2] was in the range of 10 to 40 nM. Turning to `OC1CCc2c([nH]c3ccc(Br)cc23)C1c1ccccc1` (centres unmarked) [Compound 236], the EC50 under setting [2] fell in the range of 40 to 200 nM. Take `Brc1ccc2[nH]c3c(c2c1)CCCC3NCCN1CCOCC1` (centres unmarked) [Compound 122, (6-Bromo-2,3,4,9-tetrahydro-1H-carbazol-1-yl)-(2-morpholin-4-yl-ethyl)-amine]: the EC50 under setting [1] is over 1000 nM. The same measure, in the same setting: the result for `Brc1ccc2[nH]c3c(c2c1)CCCC3n1ccc(CNc2ccccc2)c1` (centres unmarked) [Compound 49, [1-(6-Bromo-2,3,4,9-tetrahydro-1H-carbazol-1-yl)-1H-pyrrol-3-ylmethyl]-phenyl-amine] reads 40 to 200 nM. As for `CN1CCN(CCCOc2ccc(C3CCCc4c3[nH]c3ccc(Br)cc43)cc2)CC1` (centres unmarked) [Compound 208], the EC50 under setting [2] was in the range of 40 to 200 nM. On the same count and under the same terms, under `OCC(O)COc1ccc(C2CCCc3c2[nH]c2ccc(Cl)cc32)cc1` (centres unmarked) [Compound 213] stands 10 to 40 nM; under `OC(COc1ccc(C2CCCc3c2[nH]c2ccc(Br)cc32)cc1)Cn1ccnc1` (centres unmarked) [Compound 195], under 10 nM. Still for that read-out and setting: the result for `OC1CCc2c([nH]c3ccc(Br)cc23)C1c1ccc(Cl)cc1` (centres unmarked) [Compound 238] reads under 10 nM. As to `Brc1ccc2[nH]c3c(c2c1)CCCC3N1CCCC1` (centres unmarked) [Compound 116, 6-Bromo-1-pyrrolidin-1-yl-2,3,4,9-tetrahydro-1H-carbazole], the EC50 under setting [1] is over 1000 nM.
